Key:
[1] = target: T1, 5-hydroxytryptamine receptor 2C (Homo sapiens, UniProt P28335); experiment: Inhibition of Cy3B conjugated serotonin analogue binding to human recombinant 5-HT2C receptor expressed in Swiss mouse 3T3 cell membranes after 60 mins by fluorescence polarization assay
T1 sequence (P28335 whole entry): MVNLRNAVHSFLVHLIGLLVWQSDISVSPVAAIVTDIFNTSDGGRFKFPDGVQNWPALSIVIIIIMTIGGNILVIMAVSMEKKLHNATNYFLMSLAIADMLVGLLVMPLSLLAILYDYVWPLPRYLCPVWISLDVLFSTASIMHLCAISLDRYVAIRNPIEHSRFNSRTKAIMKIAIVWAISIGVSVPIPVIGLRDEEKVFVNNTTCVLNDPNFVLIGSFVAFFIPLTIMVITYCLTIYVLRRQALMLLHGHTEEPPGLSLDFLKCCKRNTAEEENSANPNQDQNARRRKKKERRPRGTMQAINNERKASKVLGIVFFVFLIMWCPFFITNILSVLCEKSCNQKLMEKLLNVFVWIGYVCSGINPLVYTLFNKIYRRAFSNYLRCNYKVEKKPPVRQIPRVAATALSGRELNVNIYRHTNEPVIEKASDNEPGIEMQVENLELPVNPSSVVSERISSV

[2] = target: T1, 5-hydroxytryptamine receptor 2C; experiment: Agonist activity at human recombinant 5-HT2C receptor expressed in Swiss mouse 3T3 cell membranes after 30 to 40 mins by GTPgammaS recruitment assay

Row | Ki [1] [nM] | EC50 [2] [nM] | SMILES
1 | 22 | 158 | c1ccc(CNc2nc(Cc3ccccc3)cc3c2CCNCC3)cc1
2 | 3 | 9 | CNc1nc(Cc2ccccc2)cc2c1CCNCC2
3 | 3 | 11 | CCNc1nc(Cc2ccccc2)cc2c1CCNCC2
4 | 4 |  | CCCNc1nc(Cc2ccccc2)cc2c1CCNCC2

Further lines, the molecule ahead of its results:

Row | SMILES | Ki [1] [nM] | EC50 [2] [nM]
5 | c1ccc(Cc2cc3c(cn2)CCNCC3)cc1 | 35 | 
6 | CC(C)CNc1nc(Cc2ccccc2)cc2c1CCNCC2 | 12 | 36
7 | c1ccc(Cc2cc3c(c(NCC4CC4)n2)CCNCC3)cc1 | 0.5 | 
8 | CC(C)Nc1nc(Cc2ccccc2)cc2c1CCNCC2 | 13 | 
9 | CN(C)c1nc(Cc2ccccc2)cc2c1CCNCC2 | 12 | 

Reference: BindingDB's records for doi:10.1021/ml500507v (University of Cambridge, 2015)
